Read-outs that look alike come from different tables or passages of the source. Marks after values point to notes of the source that are not given here. Ends that are not written are not given here. Peptide text beside a SMILES is read from it.
Columns and labels:
[1] = tested on: SIV; assay: viral infection assay in H9 cells, reverse transcriptase (RT) activity in supernatant; type: cell-based; conditions: for Day 7 RT SIV / Day 10 RT SIV: H9 cells, 100 μM; for effect on SIV infection, in words: summary of the experiments in H9 cells
Experimental: (§1) Next, the ability of peptide agents to inhibit viral infection was evaluated. Accordingly, the peptide agents listed in Table 1 were used in several viral (e.g., HIV-1, HIV-2, and SIV) infection assays. […] Once inhibitory tripeptides were identified, more specific assays were conducted to determine the effect of varying concentrations of the selected tripeptides and combination treatments (e.g., the use of more than one modified tripeptide in combination).
(§2) To monitor the replication of virus, reverse transcriptase (RT) activity in the supernatants was assayed using a commercially available Lenti-RT activity kit. (Cavidi Tech, Uppsala, Sweden). The amount of RT was determined with the aid of a regression line of standards. […] Syncytium formation was also monitored by microscopic examination.
(§3) (Cavidi Tech). The amount of RT was determined with the aid of a regression line of standards.

[2] = tested on: HIV-2; assay: as above; type: cell-based; conditions: for Day 7 RT HIV-2 / Day 10 RT HIV-2: H9 cells, 100 μM; for effect on HIV-2 infection, in words: summary of the experiments in H9 cells
Experimental: as §1, §2, §3

[3] = tested on: HIV-1; conditions: H9 cells, 100 μM, pos/neg
Experimental: as §1, §2

[4] = tested on: HIV-1; conditions: summary of Experiments 1-6
Experimental: as §1

[5] = tested on: HIV-1; conditions: H9 cells, 100 μM
Experimental: Next, the ability of peptide agents to inhibit viral infection was evaluated. Accordingly, the peptide agents listed in Table 1 were used in several viral (e.g., HIV-1, HIV-2, and SIV) infection assays. The efficiency of HIV-1, HIV-2, and SIV infection was monitored by reverse transcriptase activity, the concentration of p24 protein in the cell supernatent, and by microscopic evaluation of HIV-1 syncytia formation. In initial experiments, several modified tripeptides were screened for the ability to inhibit HIV-1, HIV-2, and SIV infection in H9 cells.
In Experiments 1 and 2, approximately 200,000H9 cells were infected with HIV-1, HIV-2 or SIV at 25 TCID50 to test the inhibitory effect of the following synthesized tripeptides LKA-NH2, ILK-NH2, GPQ-NH2, GHK-NH2, GKG-NH2, ACQ-NH2, CQG-NH2, ARV-NH2, KAR-NH2, HKA-NH2, GAT-NH2, KAL-NH2, and GPG-NH2. Accordingly, the H9 cells were resuspended with or without the different peptides (approximately 100 μM) in 1 ml of RPMI 1640 medium supplemented with 10% (v/v) heat-inactivated fetal bovine serum (FBS), penicillin (100 u/ml), and streptomycin (100 u/ml), all available through GIBCO, and Polybrene (2 μg/ml), available through Sigma. Thereafter, viruses were added at 25 TCID50 in a volume of 20-30%1. Cells were incubated with virus at 37° C. for 1 hr then pelleted at 170× g for 7 minutes. The cells were then washed three times in RPMI medium without peptides at room temperature and pelleted at 170× g for 7 minutes, as above. After the final wash, the cells were resuspended in RPMI culture medium in a 24-well plate (Costar corporation) and kept at 37° C. in 5% CO2 with humidity.
Culture supernatants were collected and analyzed when the medium was changed at 4, 7, 10, and 14 days post infection. To monitor the replication of virus, reverse transcriptase (RT) activity in the supernatants was assayed using a commercially available Lenti-RT activity kit. […] The amount of RT was determined with the aid of a regression line of standards. The results are presented as absorbance values (OD) and higher absorbance indicates a higher protein concentration and greater viral infection. Syncytium formation was also monitored by microscopic examination.
In Experiment 3, (Table 5), approximately 200,000H9 cells were infected with HIV-1, HIV-2 or SIV at 25 TCID50 to test the inhibitory effect of different concentrations of peptides GPG-NH2, GKG-NH2 and CQG-NH2 and combinations of these peptides (the indicated concentration corresponds to the concentration of each tripeptide). As above, H9 cells were resuspended with or without the different peptides at varying concentrations in 1 ml of RPMI 1640 medium supplemented with 10% (v/v) heat-inactivated fetal bovine serum (FBS), penicillin (100 u/ml), and streptomycin (lOOu/ml), and Polybrene (2 μg/ml). Thereafter, viruses were added at 25 TCID50 in a volume of 20-30 μ. Cells were incubated with the indicated virus at 37° C. for 1 hr then pelleted at 170× g for 7 minutes. The cells were then washed three times in RPMI medium without peptides at room temperature and pelleted at 170× g for 7 minutes, as above. After the final wash, the cells were resuspended in RPMI culture medium in a 24-well plate (Costar corporation) and kept at 37° C. in 5% CO2 with humidity.
Culture supernatants were collected when the medium was changed at 4, 7, and 11 days post infection. As above, the replication of each virus was monitored by detecting reverse transcriptase (RT) activity in the supernatants using the Lenti-RT activity kit.

[6] = biological target: viral capsid protein (p24) of SIV (SIV)
[7] = biological target: viral capsid protein (p24) of HIV-2 (HIV-2)
[8] = biological target: major capsid protein (p24) of HIV-1 (HIV-1, UniProt P04591); assay: cell-based or functional assay
[9] = Experiment 1, higher OD = greater infection

Row | Molecule | Day 7 RT SIV ([1]; Experiment 1) | Day 10 RT SIV ([1]; Experiment 1) | Day 7 RT SIV ([1]; Experiment 2) | Day 10 RT SIV ([1]; Experiment 2) | Day 7 RT HIV-2 ([2]; Experiment 1) | Day 10 RT HIV-2 ([2]; Experiment 1) | Day 7 RT HIV-2 ([2]; Experiment 2) | Day 10 RT HIV-2 ([2]; Experiment 2) | HIV-1 Syncytia ([3]; Experiment 1) | HIV-1 Syncytia ([3]; Experiment 2) | effect on HIV-1 infection, in words [4] | Day 10 RT HIV-1 ([5]; Experiment 1) | Day 7 RT HIV-1 [5, 9] | Day 7 RT HIV-1 ([5]; Experiment 2) | Day 10 RT HIV-1 ([5]; Experiment 2) | reverse transcriptase (RT) activity in the supernatants, Day 10 RT (OD) [6] | reverse transcriptase (RT) activity in the supernatants, Day 10 RT (OD) [7] | also measured
1 | His-Lys-Ala (His-Lys-Ala-NH2) [HKA-NH2] | 0.416 OD | 2.520 OD | 0.455 OD | 2.623 OD | 3.408 OD | 2.669 OD | 1.678 OD | 2.560 OD | pos | pos | did not prevent HIV infection | 2.546 OD | 0.312 OD | 1.081 OD | 2.794 OD | – | – | –
2 | Ala-Cys-Gln (Ala-Cys-Gln-NH2) [ACQ-NH2] | 1.241 OD | 2.746 OD | 0.612 OD | 2.606 OD | 3.418 OD | 2.753 OD | 1.661 OD | 2.505 OD | pos | pos | did not prevent HIV infection | 0.904 OD | 0.117 OD | 0.606 OD | 2.831 OD | – | – | –
3 | Gly-His-Lys (Gly-His-Lys-NH2) [GHK-NH2] | 0.097 OD | 2.384 OD | 0.396 OD | 2.394 OD | 3.522 OD | 2.931 OD | 1.936 OD | 2.418 OD | pos | pos | failed to prevent infection and syncytia formation | 2.151 OD | 0.289 OD | 0.829 OD | 3.013 OD | – | – | –
4 | Gly-Lys-Gly-NH2 (peptide) | – | – | – | – | – | – | – | – | – | – | – | – | – | – | – | 0.099 OD | 0.147 OD | –
5 | Leu-Lys-Ala (Leu-Lys-Ala-NH2) [LKA-NH2] | 3.577 OD | 2.452 OD | 0.724 OD | 2.797 OD | 3.649 OD | 2.769 OD | 1.689 OD | 2.637 OD | pos | pos | did not prevent HIV infection | 2.429 OD | 0.568* OD | 0.894* OD | 2.989 OD | – | – | –
6 | Lys-Ala-Arg (Lys-Ala-Arg-NH2) [KAR-NH2] | 0.266 OD | 1.722 OD | 1.034 OD | 2.672 OD | 3.419 OD | 2.640 OD | 1.904 OD | 2.742 OD | pos | pos | – | 2.779 OD | 0.380 OD | 0.753 OD | 2.928 OD | – | – | –
7 | cystyl-glutaminyl-glycine amide [CQG-NH2] | – | – | – | – | – | – | – | – | – | – | inhibited and/or prevented HIV-1 infection | – | – | – | – | – | – | effect on SIV infection, in words [1]: inhibit or prevent HIV-2 and SIV infection; effect on HIV-2 infection, in words [2]: inhibit or prevent HIV-2 and SIV infection
8 | ARV-NH2 (peptide) | – | – | – | – | – | – | – | – | – | – | – | – | – | – | – | 1.17 OD | 3 OD | –
9 | Iso-Leu-Lys (Ile-Leu-Lys-NH2) [ILK-NH2] | 3.180 OD | 2.255 OD | 0.515 OD | 2.632 OD | 3.467 OD | 2.791 OD | 1.692 OD | 2.557 OD | pos | pos | – | 2.033 OD | 0.365 OD | 0.581 OD | 2.950 OD | – | – | –
10 | KAR-NH2 (peptide) | – | – | – | – | – | – | – | – | – | – | – | – | – | – | – | 1.72 OD | 2.64 OD | –
11 | Gly-Ala-Thr (Gly-Ala-Thr-NH2) [GAT-NH2] | 0.892 OD | 2.343 OD | 0.572 OD | 2.776 OD | 3.461 OD | 2.835 OD | 1.707 OD | 2.565 OD | pos | pos | failed to prevent infection and syncytia formation | 1.565 OD | 0.116 OD | 0.776 OD | 2.800 OD | – | – | –
12 | ACQ-NH2 (peptide) | – | – | – | – | – | – | – | – | – | – | – | – | – | – | – | 2.75 OD | 2.75 OD | –
13 | Gly-Pro-Gln (Gly-Pro-Gln-NH2) [GPQ-NH2] | 1.542 OD | 2.176 OD | 0.574 OD | 2.319 OD | 3.692 OD | 2.734 OD | 1.511 OD | 2.382 OD | pos | pos | did not prevent HIV infection | 1.965 OD | 0.204 OD | 0.884 OD | 2.848 OD | – | – | –
14 | GAT-NH2 (peptide) | – | – | – | – | – | – | – | – | – | – | – | – | – | – | – | 2.34 OD | 2.83 OD | –
15 | LKA-NH2 (peptide) | – | – | – | – | – | – | – | – | – | – | – | – | – | – | – | 2.45 OD | 2.77 OD | –
16 | Lys-Ala-Leu (Lys-Ala-Leu-NH2) [KAL-NH2] | 1.091 OD | 2.524 OD | 0.511 OD | 2.663 OD | 3.372 OD | 2.749 OD | 1.757 OD | 2.383 OD | pos | pos | failed to prevent infection | 1.995 OD | 0.246 OD | 0.999 OD | 2.791 OD | – | – | –
17 | HKA-NH2 (peptide) | – | – | – | – | – | – | – | – | – | – | – | – | – | – | – | 2.52 OD | 2.67 OD | –
18 | Ala-Arg-Val (Ala-Arg-Val-NH2) [ARV-NH2] | 0.210 OD | 1.172 OD | 0.212 OD | 3.004 OD | 3.380 OD | 3.003 OD | 2.237 OD | 2.628 OD | pos | pos | failed to prevent infection | 1.528 OD | 0.156 OD | 0.618 OD | 2.829 OD | – | – | –
19 | NCCCC[C@H](NC(=O)CN)C(=O)NCC(N)=O [GKG-NH2, glycyl-lysyl-glycine amide] (H-Gly-Lys-Gly-NH2) | – | – | – | – | – | – | – | – | – | – | inhibited and/or prevented HIV-1 infection | – | – | – | – | – | – | effect on SIV infection, in words [1]: inhibit or prevent HIV-2 and SIV infection; effect on HIV-2 infection, in words [2]: inhibit or prevent HIV-2 and SIV infection
20 | KAL-NH2 (peptide) | – | – | – | – | – | – | – | – | – | – | – | – | – | – | – | 2.52 OD | 2.75 OD | –
21 | ILK-NH2 (peptide) | – | – | – | – | – | – | – | – | – | – | – | – | – | – | – | 2.25 OD | 2.79 OD | –
22 | GHK-NH2 (peptide) | – | – | – | – | – | – | – | – | – | – | – | – | – | – | – | 2.38 OD | 2.93 OD | –
23 | Cys-Gln-Gly-NH2 (peptide) | – | – | – | – | – | – | – | – | – | – | – | – | – | – | – | 0.11 OD | 0.296 OD | –
24 | GPQ-NH2 (peptide) | – | – | – | – | – | – | – | – | – | – | – | – | – | – | – | 2.18 OD | 2.73 OD | –
25 | Leu-Lys-Ala-NH2 [LKA-NH2] | – | – | – | – | – | – | – | – | – | – | – | – | – | – | – | – | – | reverse transcriptase (RT) activity in the supernatants, Day 10 RT (OD) [8]: 2.43 OD
26 | Ile-Leu-Lys-NH2 [ILK-NH2] | – | – | – | – | – | – | – | – | – | – | – | – | – | – | – | – | – | reverse transcriptase (RT) activity in the supernatants, Day 10 RT (OD) [8]: 2.03 OD
27 | Gly-Pro-Gln-NH2 [GPQ-NH2] | – | – | – | – | – | – | – | – | – | – | – | – | – | – | – | – | – | reverse transcriptase (RT) activity in the supernatants, Day 10 RT (OD) [8]: 1.97 OD
28 | Gly-His-Lys-NH2 [GHK-NH2] | – | – | – | – | – | – | – | – | – | – | – | – | – | – | – | – | – | reverse transcriptase (RT) activity in the supernatants, Day 10 RT (OD) [8]: 2.15 OD
29 | Gly-Lys-Gly-NH2 [Gly-Lys-Gly-NH2] | – | – | – | – | – | – | – | – | – | – | – | – | – | – | – | – | – | reverse transcriptase (RT) activity in the supernatants, Day 10 RT (OD) [8]: 0.074 OD

Reference: patent US20030050242A1, “Protein polymerization inhibitors and methods of use” (priority 1999, published 2003)
